Results on 1 compound are retold here after US12678488B2, “Batch management method for improving farrowing rate or number of piglets born alive in swine” (priority 2024, dated 2026).

One data set has as its system ICR female mice. Nature of the data set: Mouse batch farrowing with FTAI model: embryo implantation number, embryo spacing, number born alive. Format: in vivo. As to conditions: for embryo spacing upon embryo implantation: compared with batch farrowing model group. How it is done: 6-8-week-old ICR female mice acclimatized to the laboratory mouse house environment and in a good condition were selected and divided into a batch farrowing with FTAI model group, a batch farrowing with FTAI+low-dose model group, and a batch farrowing with FTAI+high-dose model group, and 10IU PMSG was injected at 17:00 pm. At 6-8 hours after a single injection of PMSG to the batch farrowing with FTAI+low-dose model group and the batch farrowing with FTAI+high-dose model group, respectively, the groups were supplemented with a low dose of 1-[bis(4-cyanophenyl)methyl]-1,2,4-triazole (10 μg/kg·BW) and a high dose of 1-[bis(4-cyanophenyl)methyl]-1,2,4-triazole (50 μg/kg·BW), respectively, and at 46-48 hours after the injection of PMSG, the groups were then injected with prepared 10IU GnRH and then put into a breeding male mouse cage. At 7:00-9:00 the next morning, vaginal plugs were examined, and this day was recorded as day 1 (D1) of pregnancy. In the afternoon of day 5 (D5) of pregnancy, 0.4 ml of 1% Chicago blue-normal saline solution was injected into model mice at the caudal vein, and after 3 minutes of systemic circulation, the mice were sacrificed by means of cervical dislocation, the abdominal cavity was immediately cut open, and the abdominal aorta was cut for bleeding. Then, uteri and ovaries were removed with surgical ophthalmic scissors, immersed in physiological saline for washing, and then put into a 4% paraformaldehyde fixation solution for 5 minutes of morphological fixation. Blue dots on the uterus were recorded as embryo implantation sites, the number of implantation sites was counted, and patterns of embryo spacing in different groups were drawn.
For some of the mice treated above, no intermediate test was done, and after the mice gave birth, the number born alive in each group was counted.

For data set [1], the system named is Enpp2, Lpar3 and ptgs2 mRNA (LPA signalling pathway) in the uterus. Nature of the data set: Quantitative PCR of key molecules in the LPA signalling pathway in mouse uteri. The format is in vivo. As to conditions: mice, 10 μg/kg·BW.
Method: 6-8-week-old ICR female mice acclimatized to the laboratory mouse house environment and in a good condition were selected and divided into a batch farrowing with FTAI model group, a batch farrowing with FTAI+low-dose model group, and a batch farrowing with FTAI+high-dose model group, and 10IU PMSG was injected at 17:00 pm. […] At 7:00-9:00 the next morning, vaginal plugs were examined, and this day was recorded as day 1 (D1) of pregnancy. In the afternoon of day 5 (D5) of pregnancy, 0.4 ml of 1% Chicago blue-normal saline solution was injected into model mice at the caudal vein, and after 3 minutes of systemic circulation, the mice were sacrificed by means of cervical dislocation, the abdominal cavity was immediately cut open, and the abdominal aorta was cut for bleeding. […] Blue dots on the uterus were recorded as embryo implantation sites, the number of implantation sites was counted, and patterns of embryo spacing in different groups were drawn.
Unfixed uteri were isolated for RNA extraction, reverse transcription and quantitative PCR detection of several key target molecules in the LPA signalling pathway, i.e., detection of Enpp2 (a gene for the expression of ATX, the key enzyme of LPA synthesis), Lpar3 (LPA receptor gene), and ptgs2 (a key gene downstream of LPAR). […]
The next data set deals with batch farrowing sows. Nature of the data set: Previous experiment of feeding batch farrowing sows with different doses at different times. The format is in vivo, pigs. As to conditions: application dosage and oral administration time of clinical medicine and bovine superovulation. The protocol: In the disclosure, the administration dosage of 1-[bis(4-cyanophenyl)alkyl]-1,2,4-triazole is generally 10-50 μg/kg·BW administered in a single dose, preferably 12-30 μg/kg·BW administered in a single dose, further preferably 12-25 μg/kg·BW administered in a single dose, e.g., 13, 14, 15, 16, 17, 18, 19, 20, 21, 22, or 23 μg/kg·BW. Alternatively, it can be administered in two doses. As long as the total administration dosage of the two doses is within a range of 10-50 μg/kg·BW, the dosage of each administration is not particularly limited, for example, each administration dosage is generally within a range of 1-40 μg/kg·BW. In the case of two doses, the time interval between the two instances of administration is 8-30 hours, preferably 9-28 hours, more preferably 10-26 hours, further preferably 12-25 hours, 14-24 hours, etc. If the administration dosage is too high, it tends to affect the estrus and ovulation in animals and even cause ovarian cysts. The administration dosage of the disclosure is important.

[2] abbreviates: low dose 10 μg/kg·BW, compared with batch farrowing with FTAI model group.

Entries after “also recorded” stand apart in the source; their conditions may differ.

`N#Cc1ccc(C(c2ccc(C#N)cc2)n2cncn2)cc1` [1-[bis(4-cyanophenyl)methyl]-1,2,4-triazole]: the “embryo spacing upon embryo implantation” value was “no effect on increasing the embryo spacing; also recorded: could not alleviate the overcrowding of embryos” with ICR female mice (high dose 50 μg/kg·BW) and “increased embryo spacing; also recorded: increase the spacing between embryos” with ICR female mice (low dose 10 μg/kg·BW). Also, the number born alive result is reported as “reduced number born alive; also recorded: decreased number born alive” in the data set on ICR female mice (high dose 50 μg/kg·BW, compared with batch farrowing with FTAI model group) and “significantly increase the number born alive” in the data set with ICR female mice (setting [2]). The embryo implantation number entry with ICR female mice (setting [2]) is on record as “no significant effect; also recorded: no significant difference”. The results for the “Enpp2, Lpar3 and ptgs2 mRNA levels in the uteri” value in data set [1] (compared with batch farrowing with FTAI model group) and in data set [1] (compared with natural estrus group) were “significantly higher” and “no significant difference”, respectively. Also, the “problems caused in sows” value in the data set on batch farrowing sows was “recessive estrus, ovarian cyst, anovulation, and pregnancy failure”.
